Source: ChEMBL document CHEMBL3808392, “Design, synthesis and biological evaluation of 5-fluorouracil-derived benzimidazoles as novel type of potential antimicrobial agents” (2016)
In brackets after ≈: the same amount, converted by molar mass. Activity calls are given as the source filed them. The calls are words filed in the database; no cut-off is given here.

How the values were obtained:
[1] = test system: Staphylococcus aureus; experiment: Antimicrobial activity against methicillin-resistant Staphylococcus aureus N315 after 24 hrs by microbroth dilution method; assay type: functional; conditions: N315, 24 h
[2] = test system: Staphylococcus aureus; experiment: Antimicrobial activity against Staphylococcus aureus ATCC 25923 after 24 hrs by microbroth dilution method; assay type: functional; conditions: ATCC 25923, 24 h
[3] = test system: Bacillus spizizenii; experiment: Antimicrobial activity against Bacillus subtilis ATCC 6633 after 24 hrs by microbroth dilution method; assay type: functional; conditions: ATCC 6633, 24 h
[4] = test system: Micrococcus luteus; experiment: Antimicrobial activity against Micrococcus luteus ATCC 4698 after 24 hrs by microbroth dilution method; assay type: functional; conditions: ATCC 4698, 24 h
[5] = test system: Escherichia coli; experiment: Antimicrobial activity against Escherichia coli DH52 after 24 hrs by microbroth dilution method; assay type: functional; conditions: DH52, 24 h
[6] = test system: Escherichia coli; experiment: Antimicrobial activity against Escherichia coli JM109 after 24 hrs by microbroth dilution method; assay type: functional; conditions: JM109, 24 h
[7] = Antimicrobial activity against Bacillus proteus ATCC 13315 after 24 hrs by microbroth dilution method; assay type: functional; conditions: ATCC 13315, 24 h
[8] = test system: Salmonella typhi; experiment: Antimicrobial activity against Bacillus typhi after 24 hrs by microbroth dilution method; assay type: functional, Salmonella enterica subsp. enterica serovar Typhi; conditions: Salmonella enterica
[9] = test system: Candida albicans; experiment: Antimicrobial activity against Candida albicans ATCC 10231 after 24 hrs by microbroth dilution method; assay type: functional; conditions: ATCC 10231, 24 h
[10] = test system: Candida; experiment: Antimicrobial activity against Candida mycoderma ATCC 9888 after 24 hrs by microbroth dilution method; assay type: functional; conditions: ATCC 9888, 24 h
[11] = test system: Saccharomyces cerevisiae; experiment: Antimicrobial activity against Saccharomyces cerevisiae after 24 hrs by microbroth dilution method; assay type: functional
[12] = test system: Aspergillus flavus; experiment: Antimicrobial activity against Aspergillus flavus ATCC 204304 after 24 hrs by microbroth dilution method; assay type: functional; conditions: ATCC 204304, 24 h
[13] = test system: Saccharomyces cerevisiae; experiment: Potency index, ratio of fluconazole MIC to compound MIC for antimicrobial activity against Saccharomyces cerevisiae; assay type: functional
[14] = test system: Staphylococcus aureus; experiment: Potency index, ratio of norfloxacin MIC to compound MIC for antimicrobial activity against methicillin-resistant Staphylococcus aureus N315; assay type: functional
[15] = test system: Staphylococcus aureus; experiment: Potency index, ratio of chloromycin MIC to compound MIC for antimicrobial activity against methicillin-resistant Staphylococcus aureus N315; assay type: functional
[16] = test system: Calf thymus DNA; experiment: Binding affinity to calf thymus DNA assessed as compound-DNA complex formation by UV-visible spectroscopy; assay type: nucleic-acid assay; conditions: Bos taurus
[17] = test system: Calf thymus DNA; experiment: Competitive binding affinity to calf thymus DNA assessed as compound-DNA complex formation at 0.74 to 2.18x10'-5 mol/l by UV-visible spectroscopy in presence of neutral red dye; assay type: nucleic-acid assay; conditions: Bos taurus
[18] = test system: Calf thymus DNA; experiment: Binding affinity to calf thymus DNA assessed as compound-DNA complex formation at 4.87x10'-5 mol/l by fluorescence analysis; assay type: nucleic-acid assay; conditions: Bos taurus
[19] = test system: Calf thymus DNA; experiment: Binding affinity to calf thymus DNA assessed as compound-DNA complex formation by fluorescence analysis in presence of quencher potassium iodide; assay type: nucleic-acid assay; conditions: Bos taurus

| SMILES | MIC [1] | MIC [2] | MIC [3] | MIC [4] | MIC [5] | MIC [6] | MIC [7] | MIC [8] | MIC [9] | MIC [10] | MIC [11] | MIC [12] | Ratio [13] | Ratio [14] | Ratio [15] | K [16] | Activity [17] | Activity [18] | KSV [19] |
| --- | --- | --- | --- | --- | --- | --- | --- | --- | --- | --- | --- | --- | --- | --- | --- | --- | --- | --- | --- |
| O=c1c(F)cn(Cc2nc3ccccc3n2Cc2ccccc2Cl)c(=O)n1Cc1ccccc1Cl | > 512 µg/mL | > 512 µg/mL | > 512 µg/mL | > 512 µg/mL | > 512 µg/mL | > 512 µg/mL | > 512 µg/mL | 512 µg/mL (≈ 1010 µM) | 512 µg/mL (≈ 1010 µM) | 512 µg/mL (≈ 1010 µM) | > 512 µg/mL | 512 µg/mL (≈ 1010 µM) |  |  |  |  |  |  |  |
| O=c1c(F)cn(Cc2nc3ccccc3n2Cc2ccc([N+](=O)[O-])cc2)c(=O)n1Cc1ccc([N+](=O)[O-])cc1 | > 512 µg/mL | > 512 µg/mL | 32 µg/mL (≈ 60.3 µM) | > 512 µg/mL | > 512 µg/mL | > 512 µg/mL | > 512 µg/mL | 32 µg/mL (≈ 60.3 µM) | > 512 µg/mL | > 512 µg/mL | > 512 µg/mL | > 512 µg/mL |  |  |  |  |  |  |  |
| CCCn1c(Cn2cc(F)c(=O)[nH]c2=O)nc2ccccc21 | 16 µg/mL (≈ 52.9 µM) | 16 µg/mL (≈ 52.9 µM) | 16 µg/mL (≈ 52.9 µM) | 16 µg/mL (≈ 52.9 µM) | 64 µg/mL (≈ 212 µM) | 64 µg/mL (≈ 212 µM) | 64 µg/mL (≈ 212 µM) | 64 µg/mL (≈ 212 µM) | 2 µg/mL (≈ 6.62 µM) | 16 µg/mL (≈ 52.9 µM) | 8 µg/mL (≈ 26.5 µM) | 32 µg/mL (≈ 106 µM) |  |  |  |  |  |  |  |
| CCCCCCCCCCCCn1c(Cn2cc(F)c(=O)[nH]c2=O)nc2ccccc21 | > 512 µg/mL | > 512 µg/mL | > 512 µg/mL | > 512 µg/mL | > 512 µg/mL | > 512 µg/mL | > 512 µg/mL | > 512 µg/mL | > 512 µg/mL | 512 µg/mL (≈ 1190 µM) | 64 µg/mL (≈ 149 µM) | > 512 µg/mL |  |  |  |  |  |  |  |
| O=c1c(F)cn(Cc2nc3ccccc3n2Cc2ccccc2)c(=O)n1Cc1ccccc1 | > 512 µg/mL | > 512 µg/mL | 64 µg/mL (≈ 145 µM) | 128 µg/mL (≈ 291 µM) | > 512 µg/mL | > 512 µg/mL | > 512 µg/mL | 128 µg/mL (≈ 291 µM) | 128 µg/mL (≈ 291 µM) | 128 µg/mL (≈ 291 µM) | > 512 µg/mL | 64 µg/mL (≈ 145 µM) |  |  |  |  |  |  |  |
| CCn1c(=O)c(F)cn(Cc2nc3ccccc3n2CC)c1=O | 64 µg/mL (≈ 202 µM) | 32 µg/mL (≈ 101 µM) | 32 µg/mL (≈ 101 µM) | 32 µg/mL (≈ 101 µM) | 32 µg/mL (≈ 101 µM) | 16 µg/mL (≈ 50.6 µM) | 32 µg/mL (≈ 101 µM) | 64 µg/mL (≈ 202 µM) | 64 µg/mL (≈ 202 µM) | 32 µg/mL (≈ 101 µM) | 32 µg/mL (≈ 101 µM) | 64 µg/mL (≈ 202 µM) |  |  |  |  |  |  |  |
| CCCCCCCCCCCCn1c(=O)c(F)cn(Cc2nc3ccccc3n2CCCCCCCCCCCC)c1=O | > 512 µg/mL | > 512 µg/mL | 512 µg/mL (≈ 858 µM) | 512 µg/mL (≈ 858 µM) | 512 µg/mL (≈ 858 µM) | 256 µg/mL (≈ 429 µM) | 512 µg/mL (≈ 858 µM) | 512 µg/mL (≈ 858 µM) | 256 µg/mL (≈ 429 µM) | 32 µg/mL (≈ 53.6 µM) | > 512 µg/mL | 512 µg/mL (≈ 858 µM) |  |  |  |  |  |  |  |
| O=c1c(F)cn(Cc2nc3ccccc3n2Cc2cccc(Cl)c2)c(=O)n1Cc1cccc(Cl)c1 | 128 µg/mL (≈ 251 µM) | 512 µg/mL (≈ 1010 µM) | 64 µg/mL (≈ 126 µM) | 128 µg/mL (≈ 251 µM) | 16 µg/mL (≈ 31.4 µM) | 128 µg/mL (≈ 251 µM) | 64 µg/mL (≈ 126 µM) | 64 µg/mL (≈ 126 µM) | 64 µg/mL (≈ 126 µM) | 64 µg/mL (≈ 126 µM) | 64 µg/mL (≈ 126 µM) | 64 µg/mL (≈ 126 µM) |  |  |  |  |  |  |  |
| CCCn1c(=O)c(F)cn(Cc2nc3ccccc3n2CCC)c1=O | 64 µg/mL (≈ 186 µM) | 32 µg/mL (≈ 92.9 µM) | 64 µg/mL (≈ 186 µM) | 32 µg/mL (≈ 92.9 µM) | 32 µg/mL (≈ 92.9 µM) | 16 µg/mL (≈ 46.5 µM) | 128 µg/mL (≈ 372 µM) | 64 µg/mL (≈ 186 µM) | 64 µg/mL (≈ 186 µM) | 32 µg/mL (≈ 92.9 µM) | 128 µg/mL (≈ 372 µM) | 64 µg/mL (≈ 186 µM) |  |  |  |  |  |  |  |
| COc1ccc(Cn2c(=O)c(F)cn(Cc3nc4ccccc4n3Cc3ccc(OC)cc3)c2=O)cc1 | 32 µg/mL (≈ 63.9 µM) | 128 µg/mL (≈ 256 µM) | 64 µg/mL (≈ 128 µM) | 64 µg/mL (≈ 128 µM) | 128 µg/mL (≈ 256 µM) | 16 µg/mL (≈ 32 µM) | 32 µg/mL (≈ 63.9 µM) | 64 µg/mL (≈ 128 µM) | 64 µg/mL (≈ 128 µM) | 512 µg/mL (≈ 1020 µM) | 64 µg/mL (≈ 128 µM) | 32 µg/mL (≈ 63.9 µM) |  |  |  |  |  |  |  |
| O=c1[nH]c(=O)n(Cc2nc3cc(F)ccc3[nH]2)cc1F | 16 µg/mL (≈ 57.5 µM) | 8 µg/mL (≈ 28.8 µM) | 128 µg/mL (≈ 460 µM) | 16 µg/mL (≈ 57.5 µM) | 32 µg/mL (≈ 115 µM) | 128 µg/mL (≈ 460 µM) | 16 µg/mL (≈ 57.5 µM) | 32 µg/mL (≈ 115 µM) | 2 µg/mL (≈ 7.19 µM) | 128 µg/mL (≈ 460 µM) | 8 µg/mL (≈ 28.8 µM) | 128 µg/mL (≈ 460 µM) |  |  |  |  |  |  |  |
| O=c1c(F)cn(Cc2nc3ccccc3n2Cc2cccc(F)c2)c(=O)n1Cc1cccc(F)c1 | 2 µg/mL (≈ 4.2 µM) | 4 µg/mL (≈ 8.4 µM) | 16 µg/mL (≈ 33.6 µM) | 64 µg/mL (≈ 134 µM) | 2 µg/mL (≈ 4.2 µM) | 8 µg/mL (≈ 16.8 µM) | 4 µg/mL (≈ 8.4 µM) | 8 µg/mL (≈ 16.8 µM) | 32 µg/mL (≈ 67.2 µM) | 32 µg/mL (≈ 67.2 µM) | 1 µg/mL (≈ 2.1 µM) | 8 µg/mL (≈ 16.8 µM) | 16 | 4 | 8 | 3.89 ×10⁴ L/mol | Active | Active | 6.45 L/mol |
